Tests used:
Assay in all cases: relative viability (nuclei count vs DMSO), 5 days (fraction); higher = more cells survive
XMD8-85 + Tozasertib = compound: CN1CCN(CC1)C2=CC(=C(C=C2)NC3=NC=C4C(=N3)N(C5=CC=CC=C5C(=O)N4C)C)OC [XMD8-85] + Cc1cc(Nc2cc(N3CCN(C)CC3)nc(Sc3ccc(NC(=O)C4CC4)cc3)n2)n[nH]1 [Tozasertib] (partner 0.1 µM)
In short: (§1)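 Lung cancer cell lines in 1536-well plates were dosed by pin tool the day after seeding, either with one drug alone or with a fixed anchor-drug dose plus five library-drug doses (not always all listed) in √10 steps. After 5 days, cells were fixed and their nuclei stained in one step (final 0.05% Triton X-100, 1% formaldehyde, 1 ug/ml Hoechst), then counted on 4× images. Relative viability is the nuclei count in treated wells divided by that in vehicle wells. Values are medians of duplicate plates.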

4EGI-1 + Linsitinib = compound: O=C(O)C(Cc1ccccc1[N+](=O)[O-])=NNc1nc(-c2ccc(Cl)c(Cl)c2)cs1 (mixture of isomers) [4EGI-1] + C[C@]1(O)C[C@@H](c2nc(-c3ccc4ccc(-c5ccccc5)nc4c3)c3c(N)nccn32)C1 [Linsitinib] (partner 1 µM)
In short: as §1

4EGI-1 + Navitoclax = compound: O=C(O)C(Cc1ccccc1[N+](=O)[O-])=NNc1nc(-c2ccc(Cl)c(Cl)c2)cs1 (mixture of isomers) [4EGI-1] + CC1(C)CCC(c2ccc(Cl)cc2)=C(CN2CCN(c3ccc(C(=O)NS(=O)(=O)c4ccc(N[C@H](CCN5CCOCC5)CSc5ccccc5)c(S(=O)(=O)C(F)(F)F)c4)cc3)CC2)C1 [Navitoclax] (partner 0.5 µM)
In short: as §1

4EGI-1 + Palbociclib = compound: O=C(O)C(Cc1ccccc1[N+](=O)[O-])=NNc1nc(-c2ccc(Cl)c(Cl)c2)cs1 (mixture of isomers) [4EGI-1] + CC(=O)c1c(C)c2cnc(Nc3ccc(N4CCNCC4)cn3)nc2n(C2CCCC2)c1=O [Palbociclib] (partner 0.5 µM)
In short: as §1

Cell Line | relative viability (XMD8-85 + Tozasertib; first compound 0.08 µM) | relative viability (XMD8-85 + Tozasertib; first compound 0.253 µM) | relative viability (XMD8-85 + Tozasertib; first compound 2.53 µM) | relative viability (XMD8-85 + Tozasertib; first compound 8 µM) | relative viability (4EGI-1 + Linsitinib; first compound 0.5 µM) | relative viability (4EGI-1 + Linsitinib; first compound 1.581 µM) | relative viability (4EGI-1 + Linsitinib; first compound 5 µM) | relative viability (4EGI-1 + Linsitinib; first compound 15.81 µM) | relative viability (4EGI-1 + Linsitinib; first compound 50 µM) | relative viability (4EGI-1 + Navitoclax; first compound 0.5 µM) | relative viability (4EGI-1 + Navitoclax; first compound 1.581 µM) | relative viability (4EGI-1 + Navitoclax; first compound 5 µM) | relative viability (4EGI-1 + Navitoclax; first compound 15.81 µM) | relative viability (4EGI-1 + Navitoclax; first compound 50 µM) | relative viability (4EGI-1 + Palbociclib; first compound 0.5 µM) | relative viability (4EGI-1 + Palbociclib; first compound 1.581 µM) | relative viability (4EGI-1 + Palbociclib; first compound 5 µM) | relative viability (4EGI-1 + Palbociclib; first compound 15.81 µM) | relative viability (4EGI-1 + Palbociclib; first compound 50 µM) | relative viability (XMD8-85 + Tozasertib; first compound 0.8 µM)
201T | 0.964 | 0.975 | 0.808 | 0.771 | 1.04 | 0.922 | 1.03 | 0.913 | 0.899 | 1.25 | 1.21 | 1.2 | 1.19 | 1.19 | 0.365 | 0.358 | 0.364 | 0.316 | 0.31 | –
A549 | – | – | – | – | 0.825 | – | 0.573 | 0.579 | 0.611 | 1.29 | 1.2 | 1.24 | 1.17 | 0.217 | – | – | – | – | – | –
A-427 | 0.193 | 0.225 | 0.185 | 0.186 | 1.09 | 0.93 | 1.03 | 1.07 | 0.618 | 0.998 | 0.823 | 0.815 | 0.687 | 0.928 | 0.543 | – | 0.535 | 0.492 | 0.319 | 0.203
ABC-1 | 0.142 | 0.159 | 0.15 | 0.231 | 0.977 | 0.863 | 0.806 | 0.68 | 0.419 | – | – | – | – | – | 0.73 | – | 0.738 | 0.527 | 0.249 | 0.19
BEN | 0.467 | – | 0.331 | 0.457 | 1.02 | 1.03 | 1.02 | 0.808 | 0.729 | 0.0672 | 0.0661 | 0.0652 | 0.0675 | 0.0686 | 0.452 | 0.455 | 0.498 | 0.46 | 0.458 | 0.426
CAL-12T | 0.287 | 0.348 | 0.259 | 0.214 | 0.87 | 0.598 | 0.922 | 0.779 | 0.859 | 1.1 | – | 1.17 | 1.23 | 0.861 | 0.618 | – | 0.577 | 0.169 | 0.145 | 0.296
COR-L23 | 0.222 | 0.216 | 0.163 | 0.144 | 1.05 | 0.814 | 0.918 | 0.492 | 0.162 | 1.22 | 0.802 | 1.1 | 0.691 | 0.147 | 0.382 | 0.214 | 0.3 | 0.205 | 0.101 | 0.197
COR-L 105 | 0.405 | 0.363 | 0.377 | 0.26 | 1.04 | 0.85 | 0.999 | 0.988 | 0.675 | 0.618 | 0.668 | 1.02 | 0.597 | 0.43 | 0.386 | 0.419 | 0.434 | 0.334 | 0.344 | 0.338
Calu-6 | – | – | – | – | 1.11 | 0.729 | 0.995 | 0.851 | 0.9 | 0.909 | 0.759 | 1.01 | 0.847 | 0.213 | – | – | – | – | – | –
ChaGo-K-1 | 0.225 | 0.233 | 0.196 | 0.144 | – | – | – | – | – | 0.775 | – | 1.1 | 0.773 | 0.247 | 0.95 | 0.936 | 0.973 | 1.01 | 0.556 | 0.207
EBC-1 | – | – | – | – | 0.992 | 1 | 0.995 | 0.652 | 1.04 | 0.525 | 0.402 | 0.624 | 0.308 | 0.142 | – | – | – | – | – | –
EKVX | 0.404 | 0.34 | 0.427 | 0.276 | 1.12 | 0.859 | 0.964 | 0.755 | 0.882 | 1.09 | 0.77 | 0.911 | 0.803 | 0.603 | 0.456 | – | 0.365 | 0.23 | 0.307 | 0.41
EMC-BAC-2 | 0.293 | 0.275 | 0.239 | 0.224 | 0.86 | 0.748 | 0.791 | 0.777 | 0.736 | 1.16 | 1.2 | 1.05 | 1.08 | 1.09 | 0.561 | – | 0.504 | 0.29 | 0.157 | 0.285
EPLC-272H | 0.294 | 0.241 | 0.281 | 0.25 | 1.31 | 0.938 | 1.19 | 1.21 | 1.24 | 1.31 | 0.938 | 1.35 | 0.951 | 0.969 | 0.317 | – | 0.367 | 0.274 | 0.301 | 0.557
H3255 | 0.599 | 0.646 | 0.25 | 0.469 | 1.09 | 0.697 | 0.994 | 0.584 | 0.857 | 0.587 | 0.477 | 0.557 | 0.137 | 0.368 | 0.306 | 0.316 | 0.305 | 0.315 | 0.302 | 0.651
HARA | 0.103 | 0.42 | 0.101 | 0.0877 | 0.982 | 0.955 | 1.05 | 0.973 | 0.209 | 1.15 | 1.1 | 1.12 | 1.15 | 0.672 | 0.32 | 0.243 | 0.295 | 0.222 | 0.202 | 0.104
HCC-15 | 0.394 | 0.294 | 0.167 | 0.143 | 0.884 | 0.836 | 0.865 | 0.728 | 0.432 | 0.797 | 0.781 | 0.744 | 0.685 | 0.494 | 0.677 | 0.747 | 0.788 | 0.679 | 0.292 | 0.398
HCC-44 | 0.802 | 0.898 | 0.51 | 0.356 | 0.708 | 0.361 | 0.681 | 0.585 | 0.406 | 0.957 | 0.596 | 0.949 | 0.958 | 0.35 | 1 | 0.813 | 0.907 | 0.862 | 0.681 | 1.15
